Data set [1] has as its system P. vivax hypnozoites. Description: P. vivax liver stage assay in primary human hepatocytes, hypnozoites. Format: cell-based. Conditions: Plasmodium vivax, Hepatocyte; 8 dpi, primary human hepatocytes; read-out: liver stage Pv hypnozoites IC50. As to the method: Finally, the NMT-binding compounds were evaluated against non-developing P. vivax hypnozoites. […] .
Data set [2] deals with P. falciparum NF54 ring-stage parasites. As to the kind of experiment: P. falciparum blood stage assay (SYBR Green parasite DNA). Format: cell-based. The conditions noted are these: Plasmodium falciparum, NF54, 72 h; read-out: blood stage Pf NF54 IC50. The method, then: To assess whether any of the NMTis developed here could qualify as TCP-1 candidates, the effect of each compound on blood-stage P. falciparum parasites was assessed, as there is currently no well-established in vitro platform for screening P. vivax blood-stage parasites. Synchronized P. falciparum NF54 ring stage parasites were treated for 72 h with each compound at various concentrations, ranging from 0.625 μM to 10 μM, and parasite DNA replication was measured using a fluorescent DNA binding dye (SYBR Green).
Sorbitol-synchronized P. falciparum NF54 ring-stage parasites were cultured at a parasitemia of 0.5% and hematocrit of 1.5% in a 96-well microtiter plate. […] Direct lysis of the blood cells to release the parasite DNA was performed by adding 100 μL of LBS buffer containing SYBR green I DNA binding dye to each well. Plates were incubated at-20° C. overnight for complete lysis and fluorescence was measured at 485 nm (excitation) and 528 nm (emission). ICEstimator regression analysis (antimalarial-icestimator dot net) was used to obtain relative IC50 values for each compound.

Data set [3] deals with T1, HsNMT1 (Homo sapiens, UniProt P30419).
T1 construct: made in house
T1 sequence (P30419 1-496): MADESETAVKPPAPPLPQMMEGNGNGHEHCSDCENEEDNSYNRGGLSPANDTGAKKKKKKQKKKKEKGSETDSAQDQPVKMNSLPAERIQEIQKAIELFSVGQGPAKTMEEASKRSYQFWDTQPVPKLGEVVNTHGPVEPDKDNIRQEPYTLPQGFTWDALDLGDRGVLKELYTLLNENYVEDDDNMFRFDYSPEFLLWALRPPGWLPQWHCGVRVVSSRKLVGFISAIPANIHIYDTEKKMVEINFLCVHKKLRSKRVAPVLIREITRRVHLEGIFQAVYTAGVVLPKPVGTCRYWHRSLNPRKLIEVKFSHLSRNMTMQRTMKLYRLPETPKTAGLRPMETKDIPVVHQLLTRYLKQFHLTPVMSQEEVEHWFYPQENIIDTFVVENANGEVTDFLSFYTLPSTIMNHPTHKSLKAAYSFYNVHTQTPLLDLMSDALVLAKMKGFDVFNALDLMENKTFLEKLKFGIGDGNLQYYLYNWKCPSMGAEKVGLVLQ
Description: NMT activity assay (CPM detection of free CoA), human NMT. Format: biochemical. Conditions: read-out: HsNMT IC50 (nM)*.

Data set [4] is described as follows: HepG2 cytotoxicity assay (live/dead staining). Format: cell-based, human. The conditions noted are these: human. As to the method: (§1) Therefore, the cytotoxicity of the compounds was assessed in the human hepatoma HepG2 cell line. The compounds with PvNMT to HsNMT selectivity index above 20 were shortlisted for further screening.
Data set [5] has as its system P. vivax liver stage schizonts. Description: P. vivax liver stage assay in primary human hepatocytes, schizonts. The conditions noted are these: Plasmodium vivax, Hepatocyte, read-out: liver stage Pv schizonts IC50 (μM).
Description: P. vivax sporozoites were obtained from three independent patient isolates. Liver stage infections were cultured in primary human hepatocytes from a single donor lot using a 384-well microculture system as described previously. Cells were infected and treated with NMTis at 20 μM beginning day 5 post-infection until day 8 when the infection rates were quantified via fluorescent microscopy. […] Accordingly, dose-response curves of all the shortlisted NMTis on parasite isolates 3 and 4 were applied over concentrations up to 20 μM (FIGS. 4C and D).
Plasmodium vivax liver stage assays were performed as described previously. Briefly, 384-well plates were seeded with primary hepatocytes from a single donor lot at a density of 25,000 cells per well. The hepatocytes were then infected with 14,000 freshly hand-dissected sporozoites per well. Cells were exposed to the compounds at indicated concentrations from day 3 post-infection, then proceeded to feed cultures every day, replacing the compounds until day 8 post-infection. Cells were fixed with 4% PFA and stained with PvUIS4 antibodies to detect schizonts and hypnozoites forms by confocal microscopy. The images were processed and analyzed using IMARIS (Bitplane Inc.) image analysis software.
For data set [6], the target named is T2, PvNMT (Plasmodium vivax, UniProt A5K1A2).
T2 construct: Gly-Pro stays on the protein after cleavage) (N, cleaved yes); host or cells: E. coli Rosetta 2 (DE3) pRARE
T2 sequence (A5K1A2 entry or part of it): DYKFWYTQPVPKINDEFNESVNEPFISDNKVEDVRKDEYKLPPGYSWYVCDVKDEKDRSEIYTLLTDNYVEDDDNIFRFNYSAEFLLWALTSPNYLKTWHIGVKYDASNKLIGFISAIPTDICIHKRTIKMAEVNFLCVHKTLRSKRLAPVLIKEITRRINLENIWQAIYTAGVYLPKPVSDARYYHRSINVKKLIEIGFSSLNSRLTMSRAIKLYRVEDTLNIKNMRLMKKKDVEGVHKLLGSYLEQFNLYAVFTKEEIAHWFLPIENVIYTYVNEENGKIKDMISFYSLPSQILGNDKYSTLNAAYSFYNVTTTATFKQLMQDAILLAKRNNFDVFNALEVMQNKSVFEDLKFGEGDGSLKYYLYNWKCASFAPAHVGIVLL
As to the kind of experiment: biochemical. Format: biochemical. The source says:
NMT activity was indirectly measured through the detection of free CoA by the thiol-reactive probe 7-diethylamino-3-(4′-maleimidylphenyl)-4-methylcoumarin (CPM).
This study aimed to identify NMT is with high selectivity for the P. vivax enzyme compared with human NMTs and high potency against the different stages of the P. vivax parasite. For this purpose, a structure-guided approach was applied using previously reported NMT inhibitors as scaffolds to develop a new generation of PvNMT-targeting compounds. The NMT activity of these inhibitors was first measured using biochemical assays through the detection of free CoA by the thiol-reactive probe 7-diethylamino-3-(4′-maleimidylphenyl)-4-methylcoumarin (CPM). Their antiparasitic activity were further evaluated by measuring blood-stage parasite load and inhibition of P. vivax liver-stage schizont and hypnozoite infection. […] Cytotoxicity was assessed in the human hepatoma HepG2 cell line. Synchronized P. falciparum NF54 ring-stage parasites were used for measuring blood-stage parasite load. […] In vitro experiments were repeated at least twice. A single concentration of each inhibitor was initially used to evaluate the inhibition of P. vivax liver stage schizont and hypnozoite infection, followed by the determination of the dose-response relationship.
To measure the activity of the purified PvNMT an assay was adapted from the literature. […] Working stock solutions were made fresh adding DMSO for final concentrations of either 1% or 5% DMSO. […] The plate was incubated for 30 min at room temperature. The enzymatic reaction was initiated by adding 50 μL of reaction substrate containing 10 µM myrCoA and PfARF, as well as 8 μM CPM. Fluorescent readings were taken on a Spectra M2 plate reader (Molecular Devices) with excitation at 385 nm and emission at 485 nm. Fluorescent intensity was measured continuously in one-minute intervals for 45 minutes. Background fluorescence and noise were determined by replacing each constituent of the reaction individually with assay buffer containing 1% DMSO and values were deducted from experimental samples. The enzymatic reactions were set up with varying pHs (6.0-8.5) of the assay buffer to determine optimal reaction conditions with minimal background and off target reactions. In lieu of compound, 10 μL of 10% DMSO/H2O was added to each well. Fluorescence signal was obtained continuously for 45 min. […] IC50 calculations were calculated using Prism (GraphPad Software, Inc).

Data set [7] has as its system HepG2 cells. As to the kind of experiment: HepG2 cytotoxicity assay (live/dead staining). Format: cell-based, human. Conditions: positive control, 10-20 μM. As to the method: as §1
Setting [8] is: Table 1, mean values of two or more determinations.

Where two headings read alike, the source gives them in different places.

For `Cc1n[nH]c(C)c1CCOc1cc(F)ccc1-c1ccnc(N2CCNCC2)c1` [Compound 12q, 1-(4-(2-(2-(3,5-dimetyl-1H-pyrazol-4-yl)ethoxy)-4-fluorophenyl)piridin-2-yl)piperazine], the IC50 – broadly, the concentration that gives 50% inhibition – is 4400 nM in data set [1]; 380 nM in data set [2]; 1630 nM in data set [3] (setting [8]); 2.2 to 3.5 µM in data set [5]; 73 nM in data set [6] (setting [8]). The IC50 at 48 h in data set [4] was above 20000 nM. Besides, the “SI**” value in data set [6] (Table 1, enzyme selectivity calculated as HsNMT IC50/PvNMT IC50) was 22.

With `Cc1nn(C)c(C)c1CCOc1ccc2ccccc2c1-c1ccnc(N2CCNCC2)c1` [Compound 30a, 1-(4-(2-(2-(1,3,5-trimethyl-1H-pyrazol-4-yl)ethoxy)naphthalen-1-yl)pyridin-2-yl)piperazine], the 50% inhibitory concentration (IC50) was 2100 nM in data set [1]; 440 nM in data set [2]; 24000 nM in data set [3] (Table 2); 2.9 to 4.3 µM in data set [5]; 89 nM in data set [6] (Table 2). In data set [4], this molecule had a half-maximal inhibitory concentration (IC50) at 48 h above 20000 nM. In data set [6] (Table 2, HsNMT IC50/PvNMT IC50), the “SI**” value is given as 269.8. Moreover, the “selectivity index (SI)” value in data set [6] (ratio of IC50 values for HsNMT1 and PvNMT) was 269.

Regarding `CN[C@@H]1C[C@H]2O[C@@](C)([C@@H]1OC)n1c3ccccc3c3c4c(c5c6ccccc6n2c5c31)C(=O)NC4` [Staurosporine, reference compound], the “effect on HepG2 cell viability” value in data set [7] is given as “reduced the cell viability”.

Values taken from patent publication US20260217686A1, “N-Myristoyltransferase Inhibitors And Methods Of Use” (Seattle Children's Hospital (d/b/a Seattle Children's …, priority 2022, published 2026).
